Reference: US8546113B2, “Hydrogen peroxide-forming NADH oxidase and DNA encoding the same” (Keio University, priority 2008, dated 2013)

Key:
[1] = system: NADH oxidase isolated from Brevibacterium sp.; settings: inhibitor 1 mM, 3 minutes at room temperature; NADH 10 μM; (NH4)2SO4 500 mM; Tris-HCl pH 8.8; not stated whether % inhibition or % relative activity
Experimental: The enzyme solution was added to 100 mM Tris-HCl (pH 8.8). Further, an inhibitor was added thereto to a final concentration of 1 mM, followed by incubation at room temperature for 3 minutes. Then, NADH and (NH4)2SO4 were added thereto so as to result in concentrations of 10 μM and 500 mM, respectively, followed by determination of the absorbance at 340 nm. Accordingly, the reaction rate was determined.

[2] = system: NADH oxidase isolated from Brevibacterium sp.; assay: Substrates and activity levels in the presence of cofactors; assay type: biochemical, Brevibacterium sp. KU1309
Experimental: (§1) Enzyme activity was evaluated by measuring the absorbance at 340 nm, which decreases as a result of oxidization of NADH to NAD^+, with the use of an absorptiometer. A reaction was induced by adding an enzyme solution to a mixture of 0.1 mM NADH, 100 mM Tris-HCL (pH 8.8), and 500 mM ammonium sulfate. Herein, “1 unit” is defined as the amount of an enzyme that allows oxidation of 1μ mole of NADH per minute.

[3] = system: NADH oxidase isolated from Brevibacterium sp.; assay: Effects of salts on enzyme activity; assay type: biochemical, Brevibacterium sp. KU1309
Experimental: Reaction was carried out with the addition of different salts, followed by determination of absorbance at 340 nm. Then, the reaction rate was determined. […] Then, the effects of ammonium salt concentration upon enzyme activity were examined in the manner described below. The reaction was carried out in the presence of ammonium sulfate at a concentration of 0 M to 4.35 M. Thereafter, the relative value of the reaction rate was calculated.

[4] = system: NADH oxidase isolated from Brevibacterium sp.; assay: Kinetic analysis of NADH oxidation (Lineweaver-Burk plot, absorbance at 340 nm); assay type: biochemical, Brevibacterium sp. KU1309; settings: for Km: NOX 0.28 ug/ml
Experimental: as §1
For kinetic analysis, the reaction rate was determined at an NADH concentration of 10 μM to 100 μM. A Lineweaver-Burk plot was created based on the obtained values. The reaction was carried out as described below. A reaction solution (NOX: 0.28 ug/ml; NADH: 10 μM to 100 μM; (NH4)2SO4: 500 mM; and Tris-HCl: 100 mM (pH 8.8)) was introduced into an absorptiometer cell, followed by determination of the absorbance at 340 nm. Accordingly, the reaction rate was determined.

[5] = system: NADH oxidase isolated from Brevibacterium sp.; assay: H2O2 formation confirmation and quantification (o-dianisidine/peroxidase, Abs460); assay type: biochemical, Brevibacterium sp. KU1309; settings: NADH 75, 100 and 150 μM
Experimental: NOX is classified into the H2O by-product type and the H2O2 by-product type. With the use of the assay method shown in FIG. 8A, H2O2 formation confirmation and H2O2 quantification were carried out. First, the reaction was carried out with the use of hydrogen peroxide, o-dianisidine, and peroxidase at known concentrations. The standard curve of [H2O2] vs Abs460 was created. The symbol “♦” denotes each obtained plotted point on the curve in FIG. 8B. […] The reaction was completed after the elapse of a sufficient reaction time. The completion of the reaction was confirmed with the use of an absorptiometer. The obtained reaction solution (50 μl) was added to a 100 mM phosphate buffer (pH 7.0) containing o-dianisidine and peroxidase, followed by absorbance determination. The symbol “□” denotes each obtained plotted point on the curve in FIG. 8B. […] It is understood that the values were identical to the relevant [H2O2] concentrations.

[6] = substrate NADH, cofactor added at 1 mM
[7] = as substrate, no cofactor added, NADH without cofactor = 100
[8] = NADH 10 μM to 100 μM, (NH4)2SO4 500 mM, Tris-HCl 100 mM (pH 8.8)

With [Ag+] [Ag^+] the “activity inhibited (FIG. 6 relative activity values)” value [1] was 37%.

In the case of [Cu+2] [Cu^2+], the “activity inhibited (FIG. 6 relative activity values)” value [1] is reported as 42%.

With Cc1cc2nc3c(=O)[nH]c(=O)nc-3n(C[C@H](O)[C@H](O)[C@H](O)COP(=O)(O)OP(=O)(O)OC[C@H]3O[C@@H](n4cnc5c(N)ncnc54)[C@H](O)[C@@H]3O)c2cc1C [FAD] the “activation caused by FAD or FMN” value [2] was “not observed” and the “Specific activity (%)” value [2, 6] was 101%.

Cc1cc2nc3c(=O)[nH]c(=O)nc-3n(C[C@H](O)[C@H](O)[C@H](O)COP(=O)(O)O)c2cc1C [FMN] was tested, and the “activation caused by FAD or FMN” value [2] was “not observed” and the “Specific activity (%)” value [2, 6] was 104%.

For NC(=O)C1=CN([C@@H]2O[C@H](COP(=O)(O)OP(=O)(O)OC[C@H]3O[C@@H](n4cnc5c(N)ncnc54)[C@H](OP(=O)(O)O)[C@@H]3O)[C@@H](O)[C@H]2O)C=CC1 [NADPH], the “degree of NADPH-oxidizing activity” value [2] was “low” and the “Specific activity (%)” value [2, 7] was 2%.

[Zn+2] [Zn^2+] was tested, and the “activity inhibited (FIG. 6 relative activity values)” value [1] was 39%.

For N.N.O=S(=O)(O)O [ammonium salt, ammonium sulfate], the “effect of addition of salt on enzyme activity” value [3] was “increases” and the “ammonium salt concentration ([NH4+]) at maximum activity” value ([3]; ammonium sulfate 0 M to 4.35 M) was 3.0 M.

Molecule “reduced nicotinamide adenine dinucleotide [NADH]” has a Kcat ([4]; Calculated with a molecular weight of 101.68 kDa) of 15.01 s⁻¹, a Vmax [4, 8] of 8.86 Unit/mq and a Km [4, 8] of 22 µM. The “Specific activity (%)” value [2, 7] was 100% and the “hydrogen peroxide formed on oxidization of 1 mol of NADH” value [5] was 1 mol.

B1: enzyme of the present invention: hydrogen peroxide-forming NADH oxidase from Brevibacterium sp. KU1309, homodimer, amino acid sequence of SEQ ID NO: 18 (protein, listed as Brevibacterium sp.)
chain: VSDELTYDLVVLGGGTGGYAAALRAAELDMKVALIERDKVGGTCLHRGCVPTKALLHAAEVAETAKNSETFGIEAELQGIDIAKVLEYKDGVITRNYKGLQGLVKARGIDTYFGTGKLVGKDTVEVTGEDGNHTVKGTNVLLSTGSTSKTIGLEVTDRVITSTEALQLDKVPSSAIVLGGGVIGVEFASVWNSFGAEVTIVEGLKHLVANEDETISKNLERAFKKRKIKFKLGVMFKGVEETADGVKVTLEDGSTLEAEYLLVAVGRGPVTEGFGFEEQGIPMDRGFVLASERLHTGVGNIYACGDIVPGLQLAHRAFGQGIFIAEEIAGLNPAPVVESGIPRVTYCEPEIFSVGLSSAQAEEKYGKDQVESLEYNLGGNGKSVILNTTGLIKVIREKDGPVVGVHGIGARLSEQAGEAQLIVNWEAFPEEVAQLIHAHPTQNEALGEAHLALAGKPLHFHS
modifications: homodimer
In the case of B1, the Km [4, 8] is reported as 22 µM and the “hydrogen peroxide formed on oxidization of 1 mol of NADH” value [5] is reported as 1 mol.
